This passage reports Activity results from ChEMBL document CHEMBL3044793, “Antihepatotoxic activity of ferolactone, a new furanocoumarin from Feronia limonia” (2012).

Test [1] deals with Rattus norvegicus. Nature of the test: Hepatoprotective activity in Rattus norvegicus Wistar albino (rat) assessed as reduction in CCl4-induced increase in alkaline phosphatase level at 50 mg/kg, po administered QD for 6 days measured on day 8 relative to control. It is filed as functional. Details: scale not given: the % may be the effect or the level left.
Test [2] has as its system Rattus norvegicus. The test is described as follows: Hepatoprotective activity in Rattus norvegicus Wistar albino (rat) assessed as reduction in CCl4-induced necrosis at 50 mg/kg, po administered QD for 6 days measured on day 8 by hematoxylin and eosin staining-based microscopic analysis. It is filed as functional, organism-based. More on the design: dose 50 mg/kg.
In test [3] the test system is Rattus norvegicus. The test is described as follows: Hepatoprotective activity in Rattus norvegicus Wistar albino (rat) assessed as reduction in CCl4-induced fatty accumulation at 50 mg/kg, po administered QD for 6 days measured on day 8 by hematoxylin and eosin staining-based microscopic analysis. More on the design: dose 50 mg/kg. Format: functional, organism-based.

Test [4] relates to Rattus norvegicus. The test is described as follows: Hepatoprotective activity against CCl4-induced toxicity in Rattus norvegicus Wistar albino (rat) assessed as normal portal triad at 50 mg/kg, po administered QD for 6 days measured on day 8 by hematoxylin and eosin staining-based microscopic analysis. More on the design: dose 50 mg/kg. Format: functional, organism-based.
Test [5] relates to Rattus norvegicus. The test is described as follows: Hepatoprotective activity against CCl4-induced toxicity in Rattus norvegicus Wistar albino (rat) assessed as normal parenchyma at 50 mg/kg, po administered QD for 6 days measured on day 8 by hematoxylin and eosin staining-based microscopic analysis. It is filed as functional, organism-based. More on the design: dose 50 mg/kg.

Test [6] concerns Rattus norvegicus. The test is described as follows: Hepatoprotective activity against CCl4-induced toxicity in Rattus norvegicus Wistar albino (rat) assessed as clear central vein at 50 mg/kg, po administered QD for 6 days measured on day 8 by hematoxylin and eosin staining-based microscopic analysis. Format: functional, organism-based. More on the design: dose 50 mg/kg.
In test [7] the test system is Rattus norvegicus. The test is described as follows: Hepatoprotective activity in Rattus norvegicus Wistar albino (rat) assessed as reduction in CCl4-induced hepatocyte injury at 50 mg/kg, po administered QD for 6 days measured on day 8 by hematoxylin and eosin staining-based microscopic analysis. It is filed as functional, organism-based. Details: dose 50 mg/kg.
Test [8] concerns Rattus norvegicus. Nature of the test: Hepatoprotective activity in Rattus norvegicus Wistar albino (rat) assessed as reduction in CCl4-induced increase in SGPT level at 50 mg/kg, po administered QD for 6 days measured on day 8 by colorimetric analysis relative to control. It is filed as functional. Details: scale not given: the % may be the effect or the level left.
The test system of test [9] is Rattus norvegicus. The test is described as follows: Hepatoprotective activity in Rattus norvegicus Wistar albino (rat) assessed as reduction in CCl4-induced lymphocytic infiltration at 50 mg/kg, po administered QD for 6 days measured on day 8 by hematoxylin and eosin staining-based microscopic analysis. Format: functional, organism-based. More on the design: dose 50 mg/kg.

Test [10] concerns Rattus norvegicus. Nature of the test: Hepatoprotective activity against CCl4-induced toxicity in Rattus norvegicus Wistar albino (rat) assessed as total albumin level at 50 mg/kg, po administered QD for 6 days measured on day 8 (reference value: 2.33 +/- 0.18 g/dl). It is filed as functional.
Test [11] has as its system Rattus norvegicus. The test is described as follows: Hepatoprotective activity in Rattus norvegicus Wistar albino (rat) assessed as increase in CCl4-induced reduction in total protein level at 50 mg/kg, po administered QD for 6 days measured on day 8 relative to control. Format: functional. More on the design: scale not given: the % may be the effect or the level left.

Test [12] concerns Rattus norvegicus. Nature of the test: Hepatoprotective activity in Rattus norvegicus Wistar albino (rat) assessed as reduction in CCl4-induced increase in SGOT level at 50 mg/kg, po administered QD for 6 days measured on day 8 by colorimetric analysis relative to ocntrol. It is filed as functional. More on the design: scale not given: the % may be the effect or the level left.

The structures appear in SMILES notation. Active and inactive are the calls of the source. The rule behind the calls is not given here.

As to `COc1c2ccoc2c(OC/C=C(\C)CC2C=C(C)C(=O)O2)c2oc(=O)ccc12` (configuration not stated) [FEROLACTONE], the Activity stood at 41.16% in the test on Rattus norvegicus [1]; 39.63% with Rattus norvegicus [8]; 3.44 g/dL in the test with Rattus norvegicus [10]; 36.15% in the test with Rattus norvegicus [11]; 43.44% with Rattus norvegicus [12]. Besides, the result in the test on Rattus norvegicus [2], in the test on Rattus norvegicus [3], with Rattus norvegicus [4], with Rattus norvegicus [5], in the test with Rattus norvegicus [6] and with Rattus norvegicus [7] was Active. For the same molecule, the result in the test with Rattus norvegicus [9] was Active.
